“Also recorded” adds a separate entry of the source.
Experiments:
[1] = system: CD1 mice; experiment: Mucosal weight gain in small intestine, 10 days daily s.c. dosing; type: in vivo
Text: Afterwards, the mice were euthanized and the small intestines were removed, flushed with saline, and processed as described below.
(§1) Specifically, 4 cm sections were harvested: (1) immediately distal to the pylorus (duodenum), (2) starting 2 cm distal of the ligament of Treitz (jejunum), and (3) immediately proximal to the cecum (ileum). The remaining small intestine from ˜6 cm distal of the ligament of Treitz to 4 cm proximal to the cecum was used to prepare mucosal scrapings. From the proximal and distal ends of the remnant, an equal distance was removed until a 15 cm section remained, the remnant was cut longitudinally, rinsed, and the mucosal layer was removed using the short end of a glass microscope slide. The wet weight of the intact intestinal segments and mucosa was measured.

[2] = Pharmacokinetics in mice (TRF assay of active mimetibody); type: in vivo
Text: Blood was collected at different time points into citrate buffer containing protease inhibitors to minimize the possibility of ex vivo degradation and plasma was separated by centrifugation.
A time resolved fluorescence (TRF) assay was used to measure active mimetibody. Active mimetibody reflects the intact N-terminus of the peptide still attached to the Fc region of the mimetibody.

[3] = system: mice; experiment: Pharmacodynamics, dosing regimens, 11 day study; type: in vivo
Text: as §1
The duration of the study was 11 days and tissue was processed as described in Example 4.

[4] = system: normal mice; experiment: Upper gastrointestinal transit, FITC-dextran method; type: in vivo; conditions: 30 minute test; for upper gastrointestinal transit: single injection 4 mg/kg 4 days before, 4 mg/kg
Method: On the day of study, upper gastrointestinal transit was measured using the FITC-dextran method. This method provides both, a measure of gastrointestinal transit and a readout of the pattern of distribution of the test meal along the gastrointestinal tract. Mice were fed a test meal of […] of FITC-dextran solution (5 mg/ml of 70,000 molecular weight dextran conjugated to fluorescein-isothiocyanate in 0.5% methylcellulose/deionized water) administered intragastrically by an 18 gauge curved feeding tube. Following oral administration of the FITC-dextran test meal, mice were returned to their home cages. It was shown that a 30 min test period was the optimum duration for detecting accelerated transit, while a 45 min test period was optimum for detecting delayed transit. Following the appropriate test period, mice were sacrificed by carbon dioxide exposure. The entire gastrointestinal tract from the lower esophageal sphincter to the terminal colon was removed. The bowel segments were opened along the mesenteric border. The tissue and luminal contents of the stomach, 10 equal segments of small intestine, the cecum, and 3 equal segments of colon were placed in individual Eppendorf tubes containing 1 ml of PBS. The tissue was vigorously mixed on a table-top vortex, and solid materials were pelleted by centrifugation. Aliquots of the cleared supernatant were read in duplicate on a 96-well fluorescence plate reader to quantify the magnitude of the fluorescent signal in each segment of bowel. These values were used to calculate the Geometric Center (GC), which is defined as the weighted average distribution of the fluorescent signal along the gastrointestinal tract: GC=Σ(% of total fluorescent signal per segment×segment number)/100. Higher values represent faster rates of transit on scale of 1 to 15. […] The mimetibody-induced shift in the distribution pattern of FITC-dextran is shown in the upper panel. […] The GC is calculated in the lower panel for statistical comparison.

[5] = SEC-SLS solution molecular weight / self-association; type: physicochemical; conditions: purified mimetibody
[6] = as above; type: physicochemical; conditions: PBS (pH 7.5), 1 mg/ml
Method: Solution molecular weight of the peptides was measured by SEC-SLS. Briefly, peptide solutions in PBS (pH 7.5) at 0.4 to 2.0 mg/mL were fractionated over a Superdex peptide column (Amersham Pharmacia). The eluted peaks were monitored by static light scattering at 690 nm and solution molecular weight was determined at UV 280 nm using the Astra software package (Wyatt Inc.).

[7] = CD spectra secondary structure; type: physicochemical; conditions: 0.2 mg/mL peptide in PBS, 25° C.
Method: The secondary structures of tested peptides were determined using 0.2 mg/mL peptide solutions in PBS. Briefly, CD spectra were collected in triplicate at 1 nm intervals at 25° C. in 0.1 cm path length cell. Secondary structures were determined by fitting of the CD spectra using CD spectra software (CD Spectra Deconvolution software 2.1). All tested peptides contained peaks corresponding to the presence of alpha helices.

[8] = system: normal mice; experiment: Upper gastrointestinal transit, carmine dye technique; type: in vivo; conditions: 50 μg/mouse daily s.c. for 10 days, 20-minute test period, vs PBS vehicle
Method: To test the effects of A2G-GLP-2 on upper gastrointestinal transit in normal mice, mice were randomly assigned to 2 groups (14 animals per test group). Each group received daily subcutaneous injection (total volume […]) of either A2G-GLP-2 peptide (50 μg/mouse) or the phosphate-buffered saline vehicle for 10 consecutive days.
On the day of study, upper gastrointestinal transit was measured using the carmine dye technique. Mice were fed a test meal of 0.25 ml of a 6% (w/v) solution of carmine cochineal powder mixed into 0.5% (w/v) methylcellulose administered intragastrically by an 18 gauge curved feeding tube. Following oral test meal administration, mice were replaced into their home cages. Twenty minutes after marker meal administration, mice were rapidly euthanized by cervical dislocation and the entire gastrointestinal tract was excised starting from the distal colon and working towards the gastric pylorus. […] The linear distance traversed by the carmine dye front through the small intestine was measured together with the total length of the small bowel. Upper gastrointestinal transit was expressed as the percentage of the entire small intestine traversed by the carmine dye front during the 20-minute test period; % small intestine traveled=[distance traversed by dye front through small intestine (cm)/entire small intestine length (cm)×100].

[9] = system: CD-1 mice; experiment: Gastrointestinal transit in post-operative inflammatory ileus; type: in vivo; conditions: 2 mg/kg one hour before surgery, FITC-dextran 48 hr after operation, 45 minutes
Method: On the day of study, upper gastrointestinal transit was measured using the FITC-dextran method. This method provides both, a measure of gastrointestinal transit and a readout of the pattern of distribution of the test meal along the gastrointestinal tract. Mice were fed a test meal of […] of FITC-dextran solution (5 mg/ml of 70,000 molecular weight dextran conjugated to fluorescein-isothiocyanate in 0.5% methylcellulose/deionized water) administered intragastrically by an 18 gauge curved feeding tube. Following oral administration of the FITC-dextran test meal, mice were returned to their home cages. It was shown that a 30 min test period was the optimum duration for detecting accelerated transit, while a 45 min test period was optimum for detecting delayed transit. Following the appropriate test period, mice were sacrificed by carbon dioxide exposure. The entire gastrointestinal tract from the lower esophageal sphincter to the terminal colon was removed. […] Aliquots of the cleared supernatant were read in duplicate on a 96-well fluorescence plate reader to quantify the magnitude of the fluorescent signal in each segment of bowel. […] The GC is calculated in the lower panel for statistical comparison. […]
All mice received an oral test meal of FITC-dextran 48 hr after the operation. Gastrointestinal transit was determined 45 minutes after oral feeding. […]

[10] = system: mice; experiment: Myeloperoxidase histochemistry of intestinal muscularis in post-operative inflammatory ileus; type: in vivo; conditions: 2 mg/kg one hour before surgery, tissue 48 hr after operation
Method: Myeloperoxidase histochemistry was performed on tissues harvested from the mid-small bowel of the mice 48 hr after the operation.
Briefly, segments of mid-small bowel were collected from the centrifuge tubes described in Example 12. Whole mounts of the muscle layer were prepared by pinning the tissue flat in a Sylgard® lined Petri dish and stretching the tissue to 2 times its length and 1.5 times its width. The mucosa was removed by fine dissection. The muscularis whole mounts were then fixed with 100% ethanol for 1 hr, washed 3 times with PBS, and incubated for 20 min in PBS containing 0.1% hydrogen peroxide and 1 mg/ml Hanker-Yates reagent. Following a second wash with PBS, the whole mounts were mounted on glass slides, cover-slipped, and viewed on an optical microscope. Myeloperoxidase containing leukocytes were counted in 6 to 8 adjacent 200× optical fields of view and the mean cell counts were calculated and recorded.

SEQ ID NO: 5: A2G GLP-2 mimetibody, IgG4 Hg-CH2-CH3 with S228P and P234A/L235A
increase in mucosal wet weight vs control mimetibody ([1]; 0.8 mg/kg (0.26 nmole), p<0.0001): statistically significant | increase in mucosal wet weight vs control mimetibody ([1]; 8 mg/kg (2.6 nmole), p<0.0004): statistically significant | mucosal wet weight (mucosal scrapings) ([1]; female CD1 mice, daily s.c. for 10 days, dose response): dose dependant increase; also recorded: dose-dependent increase | effective in vivo dose lower than A2G GLP-2 peptide ([1]; on a molar basis): 50 fold | calculated half-life ([2]; CD1 mice, 3 mg/kg intravenously or subcutaneously, TRF active mimetibody): 26.5 h | half-life higher than that of the GLP-2 peptide ([2]; mimetibody in mice vs GLP-2 peptide in humans): more than 200 fold | mucosal weight difference to control mimetibody ([3]; 4 mg/kg every day or every other day, 11 days): more pronounced | mucosal weight compared to control mimetibody ([3]; 4 mg/kg once per week, 11 days): significantly increased mucosal weight | duodenum and jejunum section wet weight over control mimetibody ([3]; 4 mg/kg, all regimens except the single dose): significant increase in weight | upper gastrointestinal transit ([4]; listed as A2G GLP-2 mimetibody): significant acceleration of intestinal transit | upper gastrointestinal transit ([4]; listed as GLP-2 mimetibody): acceleration of upper gastrointestinal transit | Geometric Center (GC) ([4]; single injection 4 days before, scale of 1 to 15, normal mice GC=6): 7.5 | SEC-SLS association state of mimetibodies [5]: dimer

CC[C@H](C)[C@H](NC(=O)[C@H](Cc1ccccc1)NC(=O)[C@H](CC(=O)O)NC(=O)[C@H](CCCNC(=N)N)NC(=O)[C@H](C)NC(=O)[C@H](C)NC(=O)[C@H](CC(C)C)NC(=O)[C@H](CC(N)=O)NC(=O)[C@H](CC(=O)O)NC(=O)[C@H](CC(C)C)NC(=O)[C@@H](NC(=O)[C@@H](NC(=O)[C@H](CC(N)=O)NC(=O)[C@H](CCSC)NC(=O)[C@H](CCC(=O)O)NC(=O)[C@H](CC(=O)O)NC(=O)[C@H](CO)NC(=O)[C@H](Cc1ccccc1)NC(=O)[C@H](CO)NC(=O)CNC(=O)[C@H](CC(=O)O)NC(=O)CNC(=O)[C@@H](N)Cc1c[nH]cn1)[C@@H](C)O)[C@@H](C)CC)C(=O)N[C@@H](CC(N)=O)C(=O)N[C@@H](Cc1c[nH]c2ccccc12)C(=O)N[C@@H](CC(C)C)C(=O)N[C@H](C(=O)N[C@@H](CCC(N)=O)C(=O)N[C@H](C(=O)N[C@@H](CCCCN)C(=O)N[C@H](C(=O)N[C@H](C(=O)N[C@@H](CC(=O)O)C(=O)O)[C@@H](C)O)[C@@H](C)CC)[C@@H](C)O)[C@@H](C)CC [SEQ ID NO: 3, GLP-2(A2G), reference compound]
increase in mucosal wet weight ([1]; 2.5 mg/kg (13.3 nmole), p<0.0001): statistically significant increase | SEC-SLS elution / association state of peptides [6]: overlapping dimer and monomer peaks | Helix [7]: 20.7% | Random coil [7]: 37.1% | upper gastrointestinal transit ([8]; listed as A2G-GLP-2): acceleration of upper gastrointestinal transit | upper gastrointestinal transit ([8]; listed as A2G-GLP-2 peptide): significant acceleration of intestinal transit

B1: SEQ ID NO: 80: human A2G-GLP2 peptide in murine IgG2a scaffold (protein)
chain: HGDGSFSDEMNTILDNLAARDFINWLIQTKITDGSGGGSGTTVTVSAEPRGPTIKPCPPCKCPAPNAAGGPSVFIFPPKIKDVLMISLSPIVTCVVVDVSEDDPDVQISWFVNNVEVHTAQTQTHREDYNSTLRVVSALPIQHQDWMSGKEFKCKVNNKDLPAPIERTISKPKGSVRAPQVYVLPPPEEEMTKKQVTLTCMVTDFMPEDIYVEWTNNGKTELNYKNTEPVLDSDGSYFMYSKLRVEKKNWVERNSYSCSVVHEGLHNHHTTKSFSRTPGK
modifications: Human A2G-GLP2 peptide in murine IgG2a scaffold
gastrointestinal transit after abdominal surgery ([9]; listed as murine A2G GLP-2 mimetibody): significant attenuation of the delay in gastrointestinal transit | gastrointestinal transit after abdominal surgery ([9]; listed as murine A2G-GLP-2 mimetibody): significant improvement in transit | number of MPO-positive leukocytes infiltrating small intestinal muscle layer [10]: significantly reduced the number of infiltrating cells

Reference: US7812121B2 (priority 2006, dated 2010)
